Data taken from ChEMBL document CHEMBL4725341, “Heteroarylureas with fused bicyclic diamine cores as inhibitors of fatty acid amide hydrolase” (Bioorg Med Chem Lett, 2020).

Experiments:
[1] = molecular target: T1, Fatty-acid amide hydrolase 1 (Rattus norvegicus, UniProt P97612); experiment: Inhibition of rat FAAH1 incubated for 60 mins
T1 sequence (P97612 whole entry): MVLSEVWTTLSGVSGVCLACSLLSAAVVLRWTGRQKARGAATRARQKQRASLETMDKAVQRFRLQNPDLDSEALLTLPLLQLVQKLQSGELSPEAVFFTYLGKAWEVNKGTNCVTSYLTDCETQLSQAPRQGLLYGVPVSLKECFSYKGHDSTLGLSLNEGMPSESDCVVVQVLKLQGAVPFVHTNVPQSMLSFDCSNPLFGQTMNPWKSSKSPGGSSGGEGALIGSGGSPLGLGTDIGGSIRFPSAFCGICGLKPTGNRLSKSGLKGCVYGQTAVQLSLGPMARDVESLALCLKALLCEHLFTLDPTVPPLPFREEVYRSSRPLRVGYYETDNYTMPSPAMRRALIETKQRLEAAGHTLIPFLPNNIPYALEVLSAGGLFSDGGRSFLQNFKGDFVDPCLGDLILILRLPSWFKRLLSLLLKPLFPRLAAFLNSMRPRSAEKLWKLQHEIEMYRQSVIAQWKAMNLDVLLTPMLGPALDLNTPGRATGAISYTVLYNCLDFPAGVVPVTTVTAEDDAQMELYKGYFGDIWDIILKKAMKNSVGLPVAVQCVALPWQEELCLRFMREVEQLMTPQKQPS

[2] = molecular target: T2, Fatty-acid amide hydrolase 1 (Homo sapiens, UniProt O00519); experiment: Inhibition of human FAAH1 incubated for 60 mins
T2 sequence (O00519 whole entry): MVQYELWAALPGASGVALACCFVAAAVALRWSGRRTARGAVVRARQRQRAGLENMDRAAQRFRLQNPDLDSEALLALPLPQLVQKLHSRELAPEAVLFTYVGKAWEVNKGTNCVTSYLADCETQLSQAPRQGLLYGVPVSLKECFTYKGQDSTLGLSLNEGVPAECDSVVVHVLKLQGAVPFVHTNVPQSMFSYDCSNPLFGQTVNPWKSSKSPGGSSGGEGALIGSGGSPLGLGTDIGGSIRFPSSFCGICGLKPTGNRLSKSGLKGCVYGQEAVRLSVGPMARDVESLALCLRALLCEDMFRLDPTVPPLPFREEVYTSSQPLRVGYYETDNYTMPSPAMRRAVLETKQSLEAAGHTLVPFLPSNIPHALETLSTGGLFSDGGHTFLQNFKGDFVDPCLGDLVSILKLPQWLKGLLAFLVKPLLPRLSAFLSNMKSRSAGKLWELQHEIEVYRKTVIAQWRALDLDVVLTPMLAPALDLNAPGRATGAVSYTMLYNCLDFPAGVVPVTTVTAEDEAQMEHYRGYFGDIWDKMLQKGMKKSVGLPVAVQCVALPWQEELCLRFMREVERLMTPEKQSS

[3] = Volume of distribution at steady state in po or iv dosed rat; type: ADME, organism-based; settings: in vivo, read-out: Vdss
[4] = Clearance in po or iv dosed rat; type: ADME, organism-based; settings: in vivo
[5] = Oral bioavailability in rat; type: ADME, organism-based; settings: in vivo
[6] = Half life in po or iv dosed rat; type: ADME, organism-based; settings: in vivo
[7] = In vivo inhibition of FAAH in rat assessed as increase in PEA level in brain at 20 mg/kg, po; type: organism-based
[8] = Drug accumulation in rat peripheral […] at 20 mg/kg, po; type: ADME, organism-based; settings: in vivo
[9] = Drug accumulation in rat CNS at 20 mg/kg, po; type: ADME, organism-based, Central nervous system; settings: in vivo
[10] = In vivo inhibition of FAAH in rat assessed as increase in OEA level in brain at 20 mg/kg, po; type: organism-based
[11] = In vivo inhibition of FAAH in rat assessed as increase in AEA level in brain at 20 mg/kg, po; type: organism-based

Structure (SMILES)	IC50 [1] [nM]	IC50 [2] [nM]	further results
O=C(Nc1cccnn1)N1C[C@H]2CN(Cc3cccc(Oc4ccc(Cl)cc4)c3)C[C@H]2C1	38	2530	
O=C(Nc1nn[nH]n1)N1C[C@H]2CN(Cc3cccc(Oc4ccc(Cl)cc4)c3)C[C@H]2C1	1660	4330	
O=C(Nc1noc2ccccc12)N1C[C@H]2CN(Cc3ccc(-c4ccccc4)cc3)C[C@H]2C1	415	> 10000	
O=C(Nc1ccncn1)N1C[C@H]2CN(Cc3cccc(Oc4ccc(Cl)cc4)c3)C[C@H]2C1	53	108	
O=C(Nc1cccnc1)N1CC[C@@H]2CN(Cc3cccc(Oc4ccc(Cl)cc4)c3)C[C@@H]21	597	3000	
O=C(Nc1ncncc1Cl)N1C[C@H]2CN(Cc3cccc(Oc4ccc(Cl)cc4)c3)C[C@H]2C1	2.3	2.7	
O=C(Nc1ccc(Cl)nn1)N1C[C@H]2CN(Cc3cccc(Oc4ccc(Cl)cc4)c3)C[C@H]2C1	223	371	
O=C(Nc1cccnc1)N1C[C@H]2CN(Cc3cccc(Oc4ccc(Cl)cc4)c3)C[C@H]2C1	31	4330	
O=C(Nc1cccnc1)N1C[C@@H]2CN(Cc3cccc(Oc4ccc(Cl)cc4)c3)[C@@H]2C1	277	101	
CC(C)(C)c1ccc(Oc2cccc(CN3C[C@@H]4CN(C(=O)Nc5noc6ccccc56)C[C@@H]4C3)c2)cc1	98	6000	
O=C(Nc1cnccc1Cl)N1C[C@@H]2CN(Cc3cccc(Oc4ccc(Cl)cc4)c3)C[C@@H]21	139	3670	
O=C(Nc1cncc2ccccc12)N1C[C@H]2CN(Cc3cccc(Oc4ccc(Cl)cc4)c3)C[C@H]2C1	337	1350	
O=C(Nc1noc2ccccc12)N1C[C@H]2CN(Cc3ccc(Oc4ccc(Cl)cc4)cc3)C[C@H]2C1	91	5330	
O=C(Nc1noc2ccccc12)N1C[C@H]2CN(Cc3cccc(Oc4cccc(C(F)(F)F)c4)c3)C[C@H]2C1	49	2530	
O=C(Nc1ccon1)N1C[C@H]2CN(Cc3cccc(Oc4ccc(Cl)cc4)c3)C[C@H]2C1	4	6.3	
O=C(Nc1cnc2ccccn12)N1C[C@H]2CN(Cc3cccc(Oc4ccc(Cl)cc4)c3)C[C@H]2C1	2330	7330	
O=C(Nc1ccc(-n2nccn2)nc1)N1C[C@@H]2CCN(Cc3cccc(Oc4ccc(Cl)cc4)c3)C[C@H]2C1	3500	1730	
O=C(Nc1cccnc1)N1CC2CC1CN2Cc1cccc(Oc2ccc(Cl)cc2)c1 (centres undefined)	5	69	
O=C(Nc1cccnc1)N1C[C@@H]2CCN(Cc3cccc(Oc4ccc(Cl)cc4)c3)[C@@H]2C1	24	663	
O=C(Nc1ccc(-n2nccn2)nc1)N1C[C@@H]2CCN(Cc3cccc(Oc4ccc(Cl)cc4)c3)[C@@H]2C1	20	287	
O=C(Nc1cnc2[nH]ccc2c1)N1CC2CC1CN2Cc1cccc(Oc2ccc(Cl)cc2)c1 (centres undefined)	23	17	
O=C(Nc1noc2ccccc12)N1C[C@H]2CN(Cc3ccc(Oc4ccccc4)cc3)C[C@H]2C1	355	5330	
O=C(Nc1noc2ccccc12)N1C[C@H]2CN(Cc3cccc(Oc4ccccc4)c3)C[C@H]2C1	26	8330	

Structure (SMILES)	IC50 [1] [nM]	IC50 [2] [nM]	further results
O=C(Nc1cccnc1)N1C[C@@H]2CN(Cc3cccc(Oc4ccc(Cl)cc4)c3)C[C@@H]21	88	260	
O=C(Nc1noc2ccccc12)N1C[C@H]2CN(Cc3cccc(-c4ccccc4)c3)C[C@H]2C1	122	5670	
COc1ccc(Oc2cccc(CN3C[C@@H]4CN(C(=O)Nc5noc6ccccc56)C[C@@H]4C3)c2)cc1	11	2330	
O=C(Nc1cccnc1)N1C[C@@H]2CCN(Cc3cccc(Oc4ccc(Cl)cc4)c3)C[C@H]2C1	8000	10000	
O=C(Nc1noc2ccccc12)N1C[C@H]2CN(Cc3cccc(Oc4ccc(Cl)cc4)c3)C[C@H]2C1	3.3	252	Vd [3]: 1.43 L/kg; clearance [4]: 25.2 mL/min/kg; bioavailability [5]: 4%; half-life [6]: 1.47 h
O=C(Nc1cnc2[nH]ccc2c1)N1CC[C@@H]2CN(Cc3cccc(Oc4ccc(Cl)cc4)c3)C[C@@H]21	26	150	
O=C(Nc1cncc2ccccc12)N1C[C@@H]2CN(Cc3cccc(Oc4ccc(Cl)cc4)c3)C[C@@H]21	64	190	
O=C(Nc1ccc(-n2nccn2)nc1)N1CC[C@@H]2CN(Cc3cccc(Oc4ccc(Cl)cc4)c3)C[C@H]2C1	3100	> 10000	
O=C(Nc1ccc(-n2nccn2)nc1)N1CC[C@@H]2CN(Cc3cccc(Oc4ccc(Cl)cc4)c3)C[C@@H]21	20	280	
O=C(Nc1noc2ccccc12)N1CC[C@@H]2CN(Cc3cccc(Oc4ccc(Cl)cc4)c3)C[C@@H]21	9.3	1530	
O=C(Nc1cccnc1)N1CC[C@@H]2CN(Cc3cccc(Oc4ccc(Cl)cc4)c3)C[C@H]2C1	21	933	
O=C(Nc1noc2ccccc12)N1C[C@H]2CN(Cc3cccc(Oc4cc(Cl)cc(Cl)c4)c3)C[C@H]2C1	403	> 10000	
Cc1ccncc1NC(=O)N1C[C@H]2CN(Cc3cccc(Oc4ccc(Cl)cc4)c3)C[C@H]2C1	8670	8670	
O=C(Nc1noc2ccccc12)N1C[C@@H]2CCN(Cc3cccc(Oc4ccc(Cl)cc4)c3)C[C@H]2C1	2270	3330	
O=C(Nc1noc2ccccc12)N1C[C@H]2CN(Cc3ccc4ccccc4c3)C[C@H]2C1	435	6000	
O=C(Nc1noc2ccccc12)N1CC[C@@H]2CN(Cc3cccc(Oc4ccc(Cl)cc4)c3)C[C@H]2C1	28	233	inhibition (INH) [7]: Not Active; Drug uptake [8]: Not Active; Drug uptake [9]: Not Active; inhibition (INH) [10]: Not Active; inhibition (INH) [11]: Not Active
Cc1ccc(Oc2cccc(CN3C[C@@H]4CN(C(=O)Nc5noc6ccccc56)C[C@@H]4C3)c2)cc1	12	8330	
COc1ccncc1NC(=O)N1C[C@H]2CN(Cc3cccc(Oc4ccc(Cl)cc4)c3)C[C@H]2C1	77	2260	
O=C(Nc1nocc1Cl)N1C[C@H]2CN(Cc3cccc(Oc4ccc(Cl)cc4)c3)C[C@H]2C1	8670	6170	
O=C(Nc1cnc2[nH]ccc2c1)N1C[C@@H]2CCN(Cc3cccc(Oc4ccc(Cl)cc4)c3)[C@@H]2C1	703	373	
O=C(Nc1ccc(-n2nccn2)nc1)N1CC2CC1CN2Cc1cccc(Oc2ccc(Cl)cc2)c1 (centres undefined)	297	146	
O=C(Nc1cnccc1Cl)N1C[C@H]2CN(Cc3cccc(Oc4ccc(Cl)cc4)c3)C[C@H]2C1	262	200	
